# Measured values reported in patent publication US8058507B2, “HOPM1 mediated disease resistance to Pseudomonas syringae in Arabidopsis” (priority 2007, dated 2011).
# What was measured:
# Assay in all cases: BFA treatment of bacteria-infiltrated detached leaves: bacterial multiplication and disease symptoms
# Format in all cases: in vivo, Pseudomonas syringae
# [1] = test system: Pst DC3000; conditions: Col-0 gl1 plants treated with water or BFA (36 μM)
# Method: (§1) A standard enumeration procedure involves pathogen inoculation, using any one of described methods, supra, followed by assaying bacterial populations present within host tissues at regular intervals. The population present within the tissue was calculated based on the dilution factor divided by the amount of tissue present in each sample. Plotting log (culturable bacterial number/cm^2 leaf tissue) against time (usually in days) after pathogen inoculation produced an unfitted curve, i.e. growth curve. For a review of methods, see, Katagiri et al., in The Arabidopsis Book, Somerville, Meyerowitz, Eds. (American Society of Plant Biologists, Rockville, Md., 2002), website://dx.doi.org/10.1199/tab.0039; herein incorporated by reference.
# (§2) Leaves were harvested and surface sterilized as follows: 1) whole leaves were removed from a host plant and gently mixed in a 70% ethanol solution for 1 minute. Leaves were blotted briefly on paper towels then rinsed in sterile distilled water for 1 minute, then blotted dry on paper towels. Leaf disks were excised from leaves with a 0.5 cm^2 or smaller cork borer, depending on the size of the sample leaves; 2) leaf disks from the leaves of 2 or more independent replicate plants were pooled for a single tissue sample and placed in a 1.5-mL microfuge tube with 100 μL sterile distilled water, the amount of leaf tissue per tube was recorded as leaf surface area. Three or more samples were harvested for each time point. Steps 1 and 2 were repeated for each sample; 3) Tissue samples were ground with a microfuge tube plastic pestle, by hand or by using a small hand-held electric drill. […] The number of serial dilutions necessary to get countable colonies were determined for each sample, however dilutions to 10^−7 were usually sufficient for any bacterial strain; 7) The samples were plated on the appropriate medium (e.g., Low salt Luria Bertani) supplemented with the necessary antibiotics to select for the specific inoculated bacterial strain. Plating was done in the traditional way (100 μL of a single sample was spread on a single plate) or several 10 μL aliquots of the 1:10 serial dilutions were spotted on to a single plate and allowed to dry onto the surface; and 8) Plates were placed at 30° C. for approximately 2 days with a cfu value determined for each dilution of each sample. […]
# (§3) Leaves were infiltrated with 1×10^6 cfu/ml of bacteria, detached, and placed in microtiter wells with petioles immersed in the 36 μM BFA (Sigma Co.) solution. […] Bacterial populations and disease symptoms were determined on day 0 and day three.
# [2] = test system: hrcC mutant; conditions: Col-0 gl1 plants treated with water or BFA (36 μM)
# Method: as §1, §2, §3
# [3] = test system: Pst DC3000 ΔCEL mutant
# Method: as §1, §2, §3
smiles,measurement,setting,value
"C[C@H]1CCC/C=C/[C@@H]2C[C@H](O)C[C@H]2[C@H](O)/C=C/C(=O)O1 [BFA, Brefeldin A]",multiplication or disease symptoms,[1],no significant differences
same,multiplication or disease symptoms,[2],no significant differences
same,virulence (both multiplication and disease symptoms),"[3]; 36 μM BFA, wild-type Col-0 gl1 plants, day three",significantly enhanced
same,"restoration of the virulence of the ΔCEL mutant, compared with AtMIN7 KO plants",[3]; BFA-treated leaves,greater than that in the AtMIN7 KO plants
